Data as given in patent US4816487A, “1-(2-hydroxyaryl)-alkane-1-on-oximes-procedure of preparation and use in pharmaceuticals” (Humboldt-Universitaet zu Berlin, priority 1985, dated 1989).
Each block holds one compound with its values, some of them ahead of it.

Tests used:
[1] = target: T1, lipoxygenase from rabbit reticulocytes (Oryctolagus cuniculus, UniProt P12530); test: inhibition of activity of lipoxygenase from rabbit reticulocytes; format: biochemical; settings: for inhibition of rabbit reticulocyte lipoxygenase by known lipoxygenase inhibitors: concentration not given; for effect on reticulocyte lipoxygenase: ultimate concentration 1 mM; for IC50: Table 3, in parentheses, read-out: I50-value, lipoxygenase from reticulocytes; for inhibition at 1000 µM: ultimate concentration 1.0 mM
T1 construct: Lipoxygenase from rabbit reticulocytes was obtained in electrophoretically and immunologically pure form; from tissue; host or cells: rabbit reticulocytes
T1 sequence (P12530 1-663): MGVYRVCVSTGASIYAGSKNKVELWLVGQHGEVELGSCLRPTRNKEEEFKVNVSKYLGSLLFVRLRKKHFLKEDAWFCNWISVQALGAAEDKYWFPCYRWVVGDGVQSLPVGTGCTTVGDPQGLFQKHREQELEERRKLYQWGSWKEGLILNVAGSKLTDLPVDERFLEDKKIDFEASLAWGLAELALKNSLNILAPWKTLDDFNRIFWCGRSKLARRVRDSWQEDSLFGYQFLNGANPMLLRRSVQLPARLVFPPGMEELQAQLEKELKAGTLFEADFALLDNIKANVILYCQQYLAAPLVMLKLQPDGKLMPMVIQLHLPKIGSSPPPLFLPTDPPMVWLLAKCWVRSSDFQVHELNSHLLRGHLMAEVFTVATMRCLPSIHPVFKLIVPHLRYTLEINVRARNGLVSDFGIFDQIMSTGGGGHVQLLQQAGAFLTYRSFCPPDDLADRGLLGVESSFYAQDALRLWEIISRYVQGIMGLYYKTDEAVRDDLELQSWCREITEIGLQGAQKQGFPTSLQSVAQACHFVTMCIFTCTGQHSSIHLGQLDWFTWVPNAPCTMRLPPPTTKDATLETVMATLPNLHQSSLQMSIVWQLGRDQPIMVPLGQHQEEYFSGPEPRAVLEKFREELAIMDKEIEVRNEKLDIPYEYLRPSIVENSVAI
Procedure: (§1) Persuasive evidence to inhibition of lipoxygenase was produced by a suitable animal lipoxygenase which had been isolated from rabbit reticulocytes, using a method by Rapoport and coworkers /S. M. Rapoport et al., Eur. J. Biochem. 96, 545 (1979)/. A final concentration of 1 mM of most of the compounds, according to this invention, produced inhibition of 90 percent or more (cf. Example 20). Significant inhibition was even recordable from a final concentration of 0.1 mM of some of the compounds, according to this invention. Substance concentrations were varied to determine the titration curves of inhibition and from these the half-inhibition concentrations (I50 -values). A half-inhibition concentration of 7 μM was established for 5-methyl-2-hydroxy-laurophenone-oxime, an oxime of high anti-asthmatic effectiveness.
Inhibition of activity of lipoxygenase from rabbit reticulocytes:
(§2) Lipoxygenase from rabbit reticulocytes was obtained in electrophoretically and immunologically pure form by means of the method described in the literature /S. M. Rapoport et al., Eur. J. Biochem. 96, 545 (1979)/. Lipoxygenase activity was determined at 25° C. by amperometric measurement of oxygen consumption by means of a Clark electrode in the following system: 0.1M potassium phosphate, pH 7.4, with 0.2-per-cent sodium cholate and 0.53 mM linoleic acid. The enzyme concentration was […] in the sample for measurement. The substances submitted for testing were dissolved in methyl glycol (fresh distillation in vacuum) and pre-incubated ten minutes with the enzyme at measurement temperature and in the absence of sodium cholate and linoleic acid. […] No remarkable inhibition occurred to control samples under these conditions. Enzyme reaction was started by addition of sodium cholate and linoleic acid. The titration curve of inhibition and, consequently, the concentrations required for inhibition by the order of 50 per cent were determined by variation of active substance concentrations. For comparison, the compounds were tested also on commercial lipoxygenase-1 from soybean.

[2] = system: sensitised guinea pig; settings: cited: C. Armour and D. M. Temple, Agents Action 12, 285 (1982); cited from earlier work
[3] = target: T2, lipoxygenase-1 from soybean (Glycine max, UniProt P08170); test: inhibition of soybean lipoxygenase-1; format: biochemical; settings: read-out: Inhibition (percent) of lipoxygenase from soybean; for inhibition at 1000 µM: ultimate concentration 1.0 mM
T2 construct: purchased
T2 sequence (P08170 1-839): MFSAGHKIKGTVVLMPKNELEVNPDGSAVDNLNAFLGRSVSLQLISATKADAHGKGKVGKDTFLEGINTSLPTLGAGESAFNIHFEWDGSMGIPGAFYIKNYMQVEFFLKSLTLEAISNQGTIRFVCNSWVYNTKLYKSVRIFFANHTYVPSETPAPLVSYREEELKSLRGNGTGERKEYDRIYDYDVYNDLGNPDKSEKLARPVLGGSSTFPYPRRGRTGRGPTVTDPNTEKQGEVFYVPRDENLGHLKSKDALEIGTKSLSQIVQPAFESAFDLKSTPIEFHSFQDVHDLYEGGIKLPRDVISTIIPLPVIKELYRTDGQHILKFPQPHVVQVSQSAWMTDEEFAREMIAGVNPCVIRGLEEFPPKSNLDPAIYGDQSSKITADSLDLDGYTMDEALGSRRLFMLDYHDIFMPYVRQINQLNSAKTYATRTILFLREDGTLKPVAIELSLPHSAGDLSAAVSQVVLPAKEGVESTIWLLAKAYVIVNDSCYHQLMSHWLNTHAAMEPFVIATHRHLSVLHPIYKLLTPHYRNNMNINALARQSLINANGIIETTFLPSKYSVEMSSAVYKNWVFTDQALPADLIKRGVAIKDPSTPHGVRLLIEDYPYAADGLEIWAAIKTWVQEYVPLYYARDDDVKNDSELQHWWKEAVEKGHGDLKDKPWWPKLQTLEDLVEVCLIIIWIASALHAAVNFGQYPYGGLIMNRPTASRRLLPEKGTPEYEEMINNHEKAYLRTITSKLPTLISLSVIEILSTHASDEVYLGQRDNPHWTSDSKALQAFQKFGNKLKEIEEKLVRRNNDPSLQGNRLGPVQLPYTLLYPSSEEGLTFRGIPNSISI
Procedure: as §1, §2

[4] = system: thrombocyte aggregation; test: inhibition of thrombocyte aggregation induced by arachidonic acid or platelet activation factor; format: cell-based, man
Procedure: Since inhibition of lipoxygenase was identified as molecular point of attack of these new medicaments, studies were conducted also into their action upon thrombocyte aggregation. The substantive role played by the lipoxygenase route in the irreversibility of thrombocyte aggregation is well established at present/C. E. Dutilh et al., Prostaglandins and Medicine 6, 111 (1981)/. A key role in the pathogenesis of thrombotic diseases is attributed to irreversibility of thrombocyte aggregation. […] In the experiments conducted for this invention, thrombocyte aggregation was triggered off either by arachidonic acid or by the platelet activation factor (PAF-acether).
Inhibition of thrombocyte aggregation induced by arachidonic acid or the platelet activation factor:
The compounds were tested for antithrombotic and thrombolytic activity in vitro on the authentic cell system of man. High-thrombocyte plasma was obtained from the blood of clinically healthy donors by 1000×g centrifugation. Thrombocyte aggregation was measured by means of an aggregometer on the basis of diffuse scatter of light or absorption of light by resulting cell aggregates. The high-thrombocyte plasma was pre-incubated with the active substances at 37° C. for three minutes. Thrombocyte aggregation was then triggered off by alternative addition of 0.8 mM of arachidonic acid or 1 μM of platelet activation factor (PAF acether). […]

[5] = read-out: Inhibition (percent) of lipoxygenase from reticulocytes

- inhibition of rabbit reticulocyte lipoxygenase by known lipoxygenase inhibitors [1]: inhibited with high effectiveness
Structure (SMILES): CCCCCC#CCC#CCC#CCC#CCCCC(=O)O [5,8,11,14-eicosa-tetraynoic acid, reference compound]

- inhibition of rabbit reticulocyte lipoxygenase by known lipoxygenase inhibitors [1]: inhibited with high effectiveness
Structure (SMILES): O=[N+]([O-])c1ccc(O)c(O)c1 [4-nitrocatechol, reference compound]

- effect on reticulocyte lipoxygenase [1]: failed to have an effect
Structure (SMILES): O=C(O)c1cc(=O)c2c(OCC(O)COc3cccc4oc(C(=O)O)cc(=O)c34)cccc2o1 [disodium-cromoglycate, reference compound]
- comparable anti-asthmatic, anti-allergic, and anti-anaphylactic effects on a whole-animal model [2]: have not even been known

Structure (SMILES): CN1CCC(=C2c3ccccc3CC(=O)c3sccc32)CC1 [ketotifen, reference compound]
- comparable anti-asthmatic, anti-allergic, and anti-anaphylactic effects on a whole-animal model [2]: have not even been known
- effect on reticulocyte lipoxygenase [1]: failed to have an effect

- inhibition at 500 µM ([3]; ultimate concentration 0.5 mM): 38%
- IC50 [1]: 500 µM
- inhibition at 500 µM ([1]; ultimate concentration 0.5 mM, read-out: Inhibition (percent) of lipoxygenase from reticulocytes): 75%
Structure (SMILES): CCCCCCCCCCCCCCCCOc1ccc(C(C)=NO)c(O)c1 [4-hexadecyloxy-2-hydroxy-acetophenone-oxime]

- inhibition at 1000 µM [3]: 24%
- IC50 [1]: 300 µM
- inhibition at 1000 µM [1, 5]: 90%
Structure (SMILES): CCCCCC(=NO)c1cc(Cl)ccc1O [5-chloro-2-hydroxy-caprophenone-oxime]

- inhibition of rabbit reticulocyte lipoxygenase by known lipoxygenase inhibitors [1]: inhibited with high effectiveness
Structure (SMILES): CCCCCCCCC#CCC#CCC#CCCCC(=O)O [5,8,11-eicosatriynoic acid, reference compound]

Structure (SMILES): COc1ccc(O)c(C(C)(C)C)c1 [3-tert.-butyl-4-hydroxy-anisol, reference compound]
- inhibition of rabbit reticulocyte lipoxygenase by known lipoxygenase inhibitors [1]: inhibited with high effectiveness

- inhibition at 1000 µM [3]: 68%
- IC50 [1]: 260 µM
- inhibition at 1000 µM [1, 5]: 100%
Structure (SMILES): CCCCCCOc1ccc(C(C)=NO)c(O)c1 [4-hexyloxy-2-hydroxy-acetophenone-oxime]
- retardation of thrombocyte aggregation ([4]; 44 μM): retarded aggregation by about two minutes
- inhibition of thrombocyte aggregation ([4]; 60 μM): total inhibition

Structure (SMILES): CC(Cc1ccc(O)c(O)c1)C(C)Cc1ccc(O)c(O)c1 (centres unmarked) [nordihydroguaiaretic acid, reference compound]
- inhibition of rabbit reticulocyte lipoxygenase by known lipoxygenase inhibitors [1]: inhibited with high effectiveness
